Results on 4 molecules are retold here after patent US9598362B2, “Benzidine derivative, method for preparing same, and pharmaceutical composition containing benzidine derivative for treating liver disease caused by hepatitis C virus” (priority 2013, dated 2017).

Where two headings read alike, the source gives them in different places.

Experiment [1] has as its system HCV (JFH-5aFlucm4). As to the kind of experiment: Evaluation of anti-HCV activity 1: huh7.5.1 cells inoculated with HCV carrying renilla luciferase reporter. In kind it is cell-based. The note with it: Hepatitis C virus. The method, then: To evaluate the anti-HCV activity of the compound represented by formula 1 of the present invention, the following experiment was performed.
The hepatoma cell line huh7.5.1 was distributed in a 12-well cell culture plate at the density of 50,000 cells/well. The cells were cultured in DMEM (Dulbecco's Modified Eagle's Medium 12800-017, GIBCO Co.) supplemented with 10% (v/v) FBS (Fetal Bovine Serum SH30406.02, Hyclone Co.) and 1% (v/v) antibiotics (penicillin/streptomycin solution SV30010, Hyclone Co.) in a 37° C. 6.0% CO2 incubator (CO2 Incubator 311, Forma Scientific Co, Lnc. USA) for 24 hours to lead cell attachment on the plate. Then, the cells were inoculated with HCV (JFH-5aFlucm4, PLoS One. 2011; 6(8):e228808.) having renilla luciferase gene as a reporter for 3 hours. Upon completion of the virus inoculation, the cell culture medium was replaced with the medium containing the compounds prepared in Examples 1˜24 at the concentration of 1 μM each. The cells were cultured in a 37° C. 6.0% CO2 incubator (CO2 Incubator 311, Forma Scientific Co, Lnc. USA) for 3 days. Three days after the infection, the cell culture medium was collected to measure the cytotoxicity in the following Experimental Example 3. The cells attached on the plate were washed with PBS (phosphate buffered saline) and then lysed by treating 100 μl of 1× passive lysis buffer (Promega, E1941). The cell lysate (10 μl) was added to renilla luciferase assay reagent (50 μl) in renilla luciferase assay system (Promega, E2820), followed by measurement of luminescence for 10 seconds using the luciferase measure program with Luminometer (GLOMAX 20/20 Luminometer, Promega). At this time, the measurement of luminescence was performed in triplicate with the groups treated with the compounds of Examples 1˜24 and the non-treated control group. The mean value was calculated and compared. The luminescence of each compound over the concentration was converted into EC50 (half maximal effective concentration) by using sigma plot program, and the results are shown in Table 2.
(Reporter assays use an easily measured gene product as a stand-in for the process of interest.)

Experiment [2] relates to HCV replicon NK/R2AN. In words: Evaluation of anti-HCV activity 2: inhibition of HCV replication, huh7.5.1 cells with replicon NK/R2AN, renilla luciferase. The format is cell-based. The note with it: for EC50: Hepatitis C virus; for EC50 (in words): duplicated HCV treated with compound. The method, then:
To evaluate the anti-HCV activity, that is the activity to inhibit HCV replication, of the compound represented by formula 1 of the present invention, the following experiment was performed.
The hepatoma cell line huh7.5.1 having NK/R2AN, the replicon with which the replication and translation of HCV could be measured, was distributed in a 12-well cell culture plate at the density of 50,000 cells/well. The cells were cultured in DMEM (Dulbecco's Modified Eagle's Medium 12800-017, GIBCO Co.) supplemented with 10% (v/v) FBS (Fetal Bovine Serum SH30406.02, Hyclone Co.), 1% (v/v) antibiotics (penicillin/streptomycin solution SV30010, Hyclone Co.), and G418 (600 μg/mL, Calbiochem) in a 37° C. 6.0% CO2 incubator (CO2 Incubator 311, Forma Scientific Co, Lnc. USA) for 24 hours to lead cell attachment on the plate. Then, the cells were inoculated with HCV having renilla luciferase gene as a reporter for 3 hours. Upon completion of the virus inoculation, the cell culture medium was replaced with the medium containing the compounds prepared in Examples 1˜24 were added to the culture medium at the concentrations of 40 pM˜1 μM each. The cells were cultured in a 37° C. 6.0% CO2 incubator (CO2 Incubator 311, Forma Scientific Co, Lnc. USA) for 3 days. Three days after the infection, the cell culture medium was collected to measure the cytotoxicity in the following Experimental Example 3. The cells attached on the plate were washed with PBS (phosphate buffered saline) and then lysed by treating 100 μl of 1× passive lysis buffer (Promega, E1941). The cell lysate (10 μl) was added to renilla luciferase assay reagent (50 μl) in renilla luciferase assay system (Promega, E2820), followed by measurement of luminescence for 10 seconds using the luciferase measure program with Luminometer (GLOMAX 20/20 Luminometer, Promega). At this time, the measurement of luminescence was performed in triplicate with the groups treated with the compounds of Examples 1˜24 and the non-treated control group. The mean value was calculated and compared. The luminescence of each compound over the concentration was converted into EC50 (half maximal effective concentration) by using sigma plot program, and the results are shown in Table 3. At this time, when EC50 was under 100 pM, it was marked as A; when EC50 was in the range of 100 pM 1 nM, it was marked as B; when EC50 was in the range of 1 nM˜100 nM, it was marked as C; and when EC50 was over 100 nM, it was marked as D. The results are shown in Table 3.
(In general: A replicon is a self-replicating genome or part of one, used to study replication in cells.)

The mark [3] stands for this setting: Huh-7.5.1, 72 h, read-out: EC50 grade.
Setting [4] is: Huh-7.5.1, replicon huh7.5.1 cells, Table 3, read-out: EC50.

As for `COC(=O)N[C@@H](C(=O)N1CCC[C@H]1C(=O)Nc1ccc2c(c1)C(F)(F)c1cc(NC(=O)[C@@H]3CCCN3C(=O)[C@H](NC(=O)OC)c3ccccc3)ccc1-2)c1ccccc1` [Example 22, dimethyl((1R,1′R)-((2S,2′S)-2,2′-(((9,9-difluoro-9H-fluorene-2,7-diyl)bis(azandiyl))bis(carbonyl))bis(pyrrolidine-2,1-diyl))bis(2-oxo-1-phenylethane-2,1-diyl))dicarbamate], the EC50 in experiment [1] (Huh-7.5.1) is less than 1 nM; in experiment [1] (setting [3]), less than 1 nM; in experiment [2] (setting [3]) it was less than 0.1 nM; in experiment [2] (setting [4]), less than 0.1 nM. Further, in experiment [2], the “EC50 (in words)” value is reported as “significantly low”.
Regarding `COC(=O)N[C@@H](C(=O)N1CCCC[C@@H]1C(=O)Nc1ccc(-c2ccc(NC(=O)[C@H]3CCCCN3C(=O)[C@H](NC(=O)OC)c3ccccc3)cc2)cc1)c1ccccc1` [Example 11, dimethyl((1R,1′R)-((2R,2′R)-2,2′-(([1,1′-biphenyl]-4,4′-diylbis(azandiyl))bis(carbonyl))bis(piperidine-2,1-diyl))bis(2-oxo-1-phenylethane-2,1-diyl))dicarbamate], the EC50 in experiment [1] (setting [3]) and in experiment [2] (setting [3]) was greater than 100 nM throughout.
Regarding `CCN(CC)[C@@H](C(=O)N1CCC[C@H]1C(=O)Nc1ccc(-c2ccc(NC(=O)[C@@H]3CCCN3C(=O)[C@@H](c3ccccc3)N(CC)CC)cc2)cc1)c1ccccc1` [Example 15, (S,2S,2′S)—N,N-(biphenyl-4,4′-diyl)bis(1-((S)-2-(diethylamino)-2-phenylacetyl)pyrrolidine-2-carboxamide)], the values for the EC50 in experiment [1] (setting [3]) and in experiment [2] (setting [3]) were 1 to 100 nM and 0.1 to 1 nM, respectively.
`COC(=O)N[C@@H](C(=O)N1CCC[C@H]1C(=O)Nc1ccc(-c2ccc(NC(=O)[C@@H]3CCCN3C(=O)[C@H](NC(=O)OC)c3ccccc3)cc2F)c(F)c1)c1ccccc1` [Example 5, dimethyl((1R,1′R)-((2S,2′S)-2,2′-(((2,2′-difluoro-[1,1′-biphenyl]-4,4′-diyl)bis(azandiyl))bis(carbonyl))bis(pyrrolidine-2,1-diyl))bis(2-oxo-1-phenylethane-2,1-diyl))dicarbamate]: the EC50 was less than 1 nM in experiment [1] (Huh-7.5.1), less than 1 nM in experiment [1] (setting [3]), less than 0.1 nM in experiment [2] (setting [3]) and less than 0.1 nM in experiment [2] (setting [4]). The “EC50 (in words)” value in experiment [2] is reported as “significantly low”.

Broadly, the EC50 is the concentration needed to bring the measured effect to its halfway point.
